From ChEMBL document CHEMBL5370542, “Current advances of small molecule E3 ligands for proteolysis-targeting chimeras design” (Eur J Med Chem, 2023)
pEC50, pIC50, pKi: −log10 of the molar value.

Key:
[1] = molecular target: T1, von Hippel-Lindau disease tumor suppressor/GTPase KRas (Homo sapiens, UniProt P01116+P40337, G12C); experiment: PROTAC activity at VHL/KRAS G12C mutant in human SW1573 cells assessed as induction of KRAS G12C degradation by Immunoblot analysis; format: cell-based
[2] = molecular target: T1, von Hippel-Lindau disease tumor suppressor/GTPase KRas; experiment: PROTAC activity at VHL/KRAS G12C mutant in human NCI-H23 cells assessed as induction of KRAS G12C degradation by Immunoblot analysis; format: cell-based
[3] = molecular target: T1, von Hippel-Lindau disease tumor suppressor/GTPase KRas; experiment: PROTAC activity at VHL/KRAS G12C mutant in human NCI- H2030 cells assessed as induction of KRAS G12C degradation by Immunoblot analysis; format: cell-based
[4] = molecular target: T1, von Hippel-Lindau disease tumor suppressor/GTPase KRas; experiment: PROTAC activity at VHL/KRAS G12C mutant in human NCI-H358 cells assessed as induction of KRAS G12C degradation by Immunoblot analysis; format: cell-based
[5] = molecular target: T1, von Hippel-Lindau disease tumor suppressor/GTPase KRas; experiment: PROTAC activity at VHL/KRAS G12C mutant in human MIA PaCa-2 cells assessed as induction of KRAS G12C degradation by Immunoblot analysis; format: cell-based
[6] = molecular target: Bromodomain-containing protein 4 (Homo sapiens, UniProt O60885); experiment: Induction of HiBit-tagged BRD4 degradation in human A549 cells incubated for 4 to 24 hrs by luminescence based Nano-Glo assay; format: cell-based
[7] = tested on: MV4-11; experiment: Antiproliferative activity against human MV4-11 cells assessed as inhibition of cell growth incubated for 3 days by CellTiter-Glo assay; format: functional, cell-based; conditions: MV4-11, 72 h
[8] = molecular target: von Hippel-Lindau disease tumor suppressor (Homo sapiens, UniProt P40337); experiment: Binding affinity to VHL (unknown origin) assessed as inhibition constant
Sequence of von Hippel-Lindau disease tumor suppressor (P40337 whole entry): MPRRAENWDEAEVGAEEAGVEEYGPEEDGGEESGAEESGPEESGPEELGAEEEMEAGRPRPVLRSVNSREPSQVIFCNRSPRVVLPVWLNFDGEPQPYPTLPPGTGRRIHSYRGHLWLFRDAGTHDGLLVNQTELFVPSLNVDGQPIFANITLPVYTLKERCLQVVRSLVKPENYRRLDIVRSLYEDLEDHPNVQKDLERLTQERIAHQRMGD

[9] = molecular target: Protein cereblon/Mitogen-activated protein kinase 13 (Homo sapiens) (UniProt O15264+Q96SW2); experiment: PROTAC activity at CRBN/N-terminal His-tagged human p38delta expressed in Escherichia coli BL21-CodonPlus (DE3)-RIPL cells assessed as maximal degradation degradation relative to control
Sequence of Protein cereblon/Mitogen-activated protein kinase 13 (Homo sapiens) (O15264 whole entry, looked up): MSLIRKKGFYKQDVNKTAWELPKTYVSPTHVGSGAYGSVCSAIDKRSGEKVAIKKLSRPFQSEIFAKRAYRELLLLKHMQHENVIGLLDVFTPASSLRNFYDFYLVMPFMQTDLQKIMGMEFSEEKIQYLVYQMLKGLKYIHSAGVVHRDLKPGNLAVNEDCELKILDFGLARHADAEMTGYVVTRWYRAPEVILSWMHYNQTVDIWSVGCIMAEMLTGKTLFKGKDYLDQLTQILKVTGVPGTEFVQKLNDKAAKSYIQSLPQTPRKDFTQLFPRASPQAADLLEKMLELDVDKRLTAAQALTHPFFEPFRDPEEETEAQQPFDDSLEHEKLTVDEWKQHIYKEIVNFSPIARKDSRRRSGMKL
Sequence of Protein cereblon/Mitogen-activated protein kinase 13 (Homo sapiens) (Q96SW2 whole entry, looked up): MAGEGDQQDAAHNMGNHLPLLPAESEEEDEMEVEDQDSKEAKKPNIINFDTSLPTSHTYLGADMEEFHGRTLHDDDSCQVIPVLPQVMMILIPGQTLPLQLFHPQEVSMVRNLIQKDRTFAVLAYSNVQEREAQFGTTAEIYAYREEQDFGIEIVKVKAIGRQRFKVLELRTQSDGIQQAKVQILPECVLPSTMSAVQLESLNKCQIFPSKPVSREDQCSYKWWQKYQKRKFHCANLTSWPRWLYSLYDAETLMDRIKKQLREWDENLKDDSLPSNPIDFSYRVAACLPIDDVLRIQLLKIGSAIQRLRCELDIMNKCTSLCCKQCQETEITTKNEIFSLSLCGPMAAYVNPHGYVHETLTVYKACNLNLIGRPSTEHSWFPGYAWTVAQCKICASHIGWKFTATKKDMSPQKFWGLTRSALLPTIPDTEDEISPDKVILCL

[10] = molecular target: von Hippel-Lindau disease tumor suppressor/Mitogen-activated protein kinase 14 (Homo sapiens) (UniProt Q16539+P40337); experiment: PROTAC activity at VHL/N-terminal His-tagged human p38alpha expressed in Escherichia coli BL21-CodonPlus (DE3)-RIPL cells assessed as maximal degradation relative to control
Sequence of von Hippel-Lindau disease tumor suppressor/Mitogen-activated protein kinase 14 (Homo sapiens) (P40337 whole entry partner): as the sequence (P40337 whole entry) above
Sequence of von Hippel-Lindau disease tumor suppressor/Mitogen-activated protein kinase 14 (Homo sapiens) (Q16539 2-360 limits assumed): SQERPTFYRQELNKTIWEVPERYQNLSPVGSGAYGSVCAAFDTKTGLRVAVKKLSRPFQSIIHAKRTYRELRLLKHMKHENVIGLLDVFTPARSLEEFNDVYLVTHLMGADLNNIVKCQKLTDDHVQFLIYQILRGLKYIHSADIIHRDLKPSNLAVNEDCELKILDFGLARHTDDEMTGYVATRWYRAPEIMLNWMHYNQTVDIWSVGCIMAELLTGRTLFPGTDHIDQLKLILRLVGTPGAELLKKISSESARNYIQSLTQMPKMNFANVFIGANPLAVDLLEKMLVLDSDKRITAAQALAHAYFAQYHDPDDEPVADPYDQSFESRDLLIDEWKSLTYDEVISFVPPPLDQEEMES

T1 sequence (P01116 whole entry G12C, stated change not applied): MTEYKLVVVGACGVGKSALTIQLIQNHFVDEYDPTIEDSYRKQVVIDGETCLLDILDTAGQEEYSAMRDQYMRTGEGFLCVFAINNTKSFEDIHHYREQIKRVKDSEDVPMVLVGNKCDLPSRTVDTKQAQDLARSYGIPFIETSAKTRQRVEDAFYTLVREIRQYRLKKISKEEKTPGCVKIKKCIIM
T1 sequence (P40337 whole entry, stated change not applied): as the sequence (P40337 whole entry) above

## C=C(F)C(=O)N1CCN(c2nc(OC[C@@H]3CCCN3CCCOCCC(=O)N[C@H](C(=O)N3C[C@H](O)C[C@H]3C(=O)NCc3ccc(-c4scnc4C)cc3)C(C)(C)C)nc3c2CCN(c2cccc4cccc(Cl)c24)C3)C[C@@H]1CC#N
[1]
  pEC50: 6.60
[2]
  pEC50: 6.60
[3]
  pEC50: 6.60
[4]
  pEC50: 6.60
[5]
  pEC50: 6.60

## Cc1cc([C@@H](C(=O)N2C[C@@H](O)C[C@@H]2C(=O)N[C@H](C)c2ccc(-c3scnc3C#CCOCCOCCOCCNC(=O)C[C@@H]3N=C(c4ccc(Cl)cc4)c4c(sc(C)c4C)-n4c(C)nnc43)cc2)C(C)C)on1
[6]
  pEC50: > 7.30

## Cc1sc2c(c1C)C(c1ccc(Cl)cc1)=N[C@@H](CC(=O)NCCCCNC(=O)COc1cccc3c1C(=O)N(C1CCC(=O)NC1=O)C3=O)c1nnc(C)n1-2 (stereo not given in full)
[7]
  pIC50: 8.21

## Cc1ncsc1-c1ccc(CNC(=O)[C@@H]2C[C@@H](O)CN2C(=O)c2cccc(N)c2C)cc1
[8]
  pKi: 6.17

## COc1cc2c(Oc3ccc(NC(=O)C4(C(=O)Nc5ccc(F)cc5)CC4)cc3F)ccnc2cc1OCCCN1CCOCC1
[9]
  Emax: 91%
[10]
  Emax: 91%
